“And” between values parts separate entries of the source, which are not always exact repeats. Equal values may be shown once.
Columns and labels:
[1] = target: T1, Gox0646 (Gluconobacter oxydans, UniProt Q5FT73); experiment: Enzyme activity assay (rate of NAD(P)H decrease at 340 nm), Gox0646; type: biochemical; conditions: 10 mM substrate; for Specific Activities: Tab. 9, GOX0646, cofactor NADPH, pH 7.0, 30 °C
T1 sequence (Q5FT73 1-264): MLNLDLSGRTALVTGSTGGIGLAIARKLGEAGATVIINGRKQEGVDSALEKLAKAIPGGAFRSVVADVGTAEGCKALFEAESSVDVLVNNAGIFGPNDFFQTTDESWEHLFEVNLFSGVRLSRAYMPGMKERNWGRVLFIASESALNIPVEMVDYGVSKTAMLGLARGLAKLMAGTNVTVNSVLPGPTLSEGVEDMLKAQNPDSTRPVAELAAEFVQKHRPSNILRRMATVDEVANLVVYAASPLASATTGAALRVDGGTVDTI
Description: (§1) Measurment of enzyme activity: NADPH-dependent alpha-ketocarbonyl reductases were assayed by a routine method used for NAD(P)-linked enzymes by recording the rate of decrease of NADPH at 340 nm (ε = 6.22 mM^-1 x cm^-1)) with substrates at 30 °C. The reaction mixture (1 ml) for reduction of alpha-ketocarbonyl substrates contained 10 mM substrate, 40 mM potassium phosphate buffer pH 7.0, 0.025 mM NAD(P)H , and the enzyme. Reactions were induced by addition of enzyme or substrate. One unit of enzyme activity was defined as the amount of enzyme catalyzing the conversion of 1 µmol of pyridine nucleotide per min at 30 °C.
(§2) NADPH-dependent α-ketocarbonyl reductases were assayed by a routine method used for NAD(P)-linked enzymes by recording the rate of decrease of NADPH at 340 nm (ε = 6.22 mM^-1.cm^-1) with substrates at 30 °C. The reaction mixture (1 ml) for reduction of alpha-ketocarbonyl substrates contained 10 mM substrate, 40 mM potassium phosphate buffer pH 7.0, 0.025 mM NADPH , and the enzyme. Reactions were induced by addition of enzyme or substrate. One unit of enzyme activity was defined as the amount of enzyme catalyzing the conversion of 1 µmol of pyridine nucleotide per min at 30 °C.
(§3) For each enzyme (Gox0313, Gox0502, Gox0644, Gox0646, Gox1615, Gox2107, and Gox2684 respectively), fresh enzyme preparations were used to validate the substrate spectrum and the kinetic activity. […] Purified NAD(P)-dependent oxidoreductases were assayed at 30 °C by a routine method used for NAD(P)-linked enzymes by recording the rate of decrease of NAD(P)H at 340 nm (ε = […]) with substrates capable of reduction reactions. The standard reaction mixture (1 ml) for the reduction reactions of substrates contained 10 mM substrate, 40 mM potassium phosphate buffer (K-phosphate buffer) pH 7.0, 0.05 mM NAD(P)H, and the enzyme unless otherwise noted. Reactions were induced by addition of enzyme or substrate. One unit of enzyme activity was defined as the amount of enzyme catalyzing the conversion of 1 µmol of pyridine nucleotide per min at 30 °C. Measurement of the protein content was performed by the method of Bradford in Anal. Biochem. 72:248-254 (1976). Table 3: Summary of enzymatic activities with α-diketones, α-ketoaldehydes and /or α-ketoesters

[2] = target: Gox2107 (Gluconobacter oxydans, UniProt Q5FP53); experiment: Enzyme activity assay (rate of NAD(P)H decrease at 340 nm), Gox2107; type: biochemical; conditions: for Specific Activity: Tab. 7, Gox2107, cofactor NADPH, 10 mM substrate, pH 7.0, 30 °C
Description: as §1, §2, §3

[3] = target: T2, Gox2684 (Gluconobacter oxydans, UniProt Q5HXK5); experiment: Enzyme activity assay (rate of NAD(P)H decrease at 340 nm), Gox2684; type: biochemical; conditions: Tab. 8, GOX2684; cofactor NADPH; 10 mM substrate, pH 7.0, 30 °C
T2 sequence (Q5HXK5 1-357): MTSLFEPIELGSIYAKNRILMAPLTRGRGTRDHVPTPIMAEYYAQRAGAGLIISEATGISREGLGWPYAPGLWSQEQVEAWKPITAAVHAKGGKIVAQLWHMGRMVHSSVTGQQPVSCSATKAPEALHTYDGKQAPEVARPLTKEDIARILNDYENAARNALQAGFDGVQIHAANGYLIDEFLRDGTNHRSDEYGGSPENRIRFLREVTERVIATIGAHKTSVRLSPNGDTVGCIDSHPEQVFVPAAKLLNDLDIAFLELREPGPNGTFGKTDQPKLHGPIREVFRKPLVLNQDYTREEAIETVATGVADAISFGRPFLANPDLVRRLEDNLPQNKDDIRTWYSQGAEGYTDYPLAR
Description: as §1, §2, §3

[4] = target: T3, Gox0502 (Gluconobacter oxydans, UniProt Q5FTL6); experiment: Enzyme activity assay (rate of NAD(P)H decrease at 340 nm), Gox0502; type: biochemical; design: Strep-tag II (N); made in house; host or cells: E. coli BL21 or E. coli DH5α (pASK-IBA5); conditions: 10 mM substrate; for Specific Activity: Tab. 7, Gox0502, cofactor NADPH, pH 7.0, 30 °C
T3 sequence (Q5FTL6 1-361): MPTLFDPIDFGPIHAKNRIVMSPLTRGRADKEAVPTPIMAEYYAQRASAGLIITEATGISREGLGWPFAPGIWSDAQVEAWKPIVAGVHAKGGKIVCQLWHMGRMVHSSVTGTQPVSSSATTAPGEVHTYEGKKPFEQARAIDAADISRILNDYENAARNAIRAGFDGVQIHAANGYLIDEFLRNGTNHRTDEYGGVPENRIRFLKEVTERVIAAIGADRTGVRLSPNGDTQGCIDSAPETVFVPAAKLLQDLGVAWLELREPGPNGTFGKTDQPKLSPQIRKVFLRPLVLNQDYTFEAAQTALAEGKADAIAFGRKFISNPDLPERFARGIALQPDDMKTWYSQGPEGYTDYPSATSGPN
Description: as §1, §2, §3

[5] = target: T4, Gox0313 (Gluconobacter oxydans, UniProt Q5FU50); experiment: Enzyme activity assay (rate of NAD(P)H decrease at 340 nm), Gox0313; type: biochemical; conditions: 10 mM substrate; for Specific Activity: Tab. 6, Gox0313, substrate reduction, cofactor NADH, pH 7.0, 30 °C
T4 sequence (Q5FU50 1-343): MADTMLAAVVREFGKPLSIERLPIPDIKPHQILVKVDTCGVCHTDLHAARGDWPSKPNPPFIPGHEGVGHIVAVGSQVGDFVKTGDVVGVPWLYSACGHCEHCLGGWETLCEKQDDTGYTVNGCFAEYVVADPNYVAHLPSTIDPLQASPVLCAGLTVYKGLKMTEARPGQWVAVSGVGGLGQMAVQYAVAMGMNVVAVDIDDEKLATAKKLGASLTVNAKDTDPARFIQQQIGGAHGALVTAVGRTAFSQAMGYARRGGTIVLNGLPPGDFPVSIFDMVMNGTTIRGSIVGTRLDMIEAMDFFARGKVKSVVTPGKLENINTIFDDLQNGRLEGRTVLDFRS
Description: as §1, §2, §3

[6] = target: Gox0644 (Gluconobacter oxydans, UniProt Q5FT75); experiment: Enzyme activity assay (rate of NAD(P)H decrease at 340 nm), Gox0644; type: biochemical; conditions: 10 mM substrate; for Specific Activity: Tab. 4, Gox0644, cofactor NADPH, pH 7.0, 30 °C
Description: (§4) Reactions were induced by addition of enzyme or substrate. One unit of enzyme activity was defined as the amount of enzyme catalyzing the conversion of 1 µmol of pyridine nucleotide per min at 30 °C.
as §4
For each enzyme (Gox0313, Gox0502, Gox0644, Gox0646, Gox1615, Gox2107, and Gox2684 respectively), fresh enzyme preparations were used to validate the substrate spectrum and the kinetic activity. […] Reactions were induced by addition of enzyme or substrate. One unit of enzyme activity was defined as the amount of enzyme catalyzing the conversion of 1 µmol of pyridine nucleotide per min at 30 °C. […] Table 3: Summary of enzymatic activities with α-diketones, α-ketoaldehydes and /or α-ketoesters

[7] = target: T5, Gox1615 (Gluconobacter oxydans, UniProt Q5FQJ0); experiment: Enzyme activity assay (rate of NAD(P)H decrease at 340 nm), Gox1615; type: biochemical; conditions: 10 mM substrate; for Specific Activity: Tab. 5, Gox1615, cofactor NADPH, pH 7.0, 30 °C
T5 sequence (Q5FQJ0 1-332): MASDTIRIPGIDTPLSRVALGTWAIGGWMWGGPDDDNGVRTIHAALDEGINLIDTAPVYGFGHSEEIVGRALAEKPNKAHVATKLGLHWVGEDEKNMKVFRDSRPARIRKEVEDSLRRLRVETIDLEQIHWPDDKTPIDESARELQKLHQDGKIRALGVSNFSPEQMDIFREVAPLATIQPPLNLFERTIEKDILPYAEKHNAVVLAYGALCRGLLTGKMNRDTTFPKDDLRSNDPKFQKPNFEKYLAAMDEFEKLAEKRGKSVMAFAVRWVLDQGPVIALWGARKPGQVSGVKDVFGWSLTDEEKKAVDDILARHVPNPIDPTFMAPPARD
Description: as §1, §2, §3

[8] = substrate: CCC(=O)C(C)=O; experiment: Enzyme kinetics (Lineweaver-Burk plots), Gox0646; type: biochemical, Gluconobacter oxydans; conditions: other: Gox0646; substrate 0.025 to 10 mM
Description: Determination of pH and temperature optima and enzyme kinetics: The optimum pH for enzyme activities was determined by a modified method of Salusjärvi, T. et al., Appl. Microbiol. Biotechnol. 65:306-314 (2004) using the following buffer system (50 mM final concentration each): sodium acetate pH 4.5 - 6.5, potassium phosphate pH 6.5 - 8.0, Tris-HCl pH 8.0 - 10. Temperature optima for the biocatalysts were determined under standard reaction conditions at temperatures ranging from 20 - 80 °C. The Michaelis constant (Km) for the proteins was determined from purified enzyme by Lineweaver-Burk plots. Assays were performed at optimum pH for each enzyme and at 30 °C using the top substrate and a targeted substrate. The Km for each substrate was calculated using concentrations of 0.0025 to 10 mM, and the Km NAD(P)H and NAD(P) was calculated using concentrations of 0.01 to 0.5 mM
The Michaelis constants were determined from purified enzyme by Lineweaver-Burk plots. The Km and Vmax values for the substrates were calculated using concentrations of 0.025 to 10 mM, The optimal pH values and temperatures for enzyme activities are also shown in Tab. 11. Tab. 11: Summary of kinetic parameters

## O=C1C=CC(=O)c2ccccc21 [1,4-naphthoquinone]
[1]
  Specific Activities: 0.2 U/mg
[2]; Gox2107, reduction with NADPH
  activities: 217.4 µmol/mg/min
[2]
  Specific Activity: 217.5 U/mg
[3]
  Specific Activities: 3.4 U/mg
[4]
  Specific Activity: 16.6 U/mg

## CC(=O)C(=O)c1ccccc1 [1-phenyl-1,2-propanedione]
[5]
  Specific Activity: 0.2 U/mg
[5]; Table 3, Gox0313, K-phosphate buffer pH 7.0, 0.05 mM NAD(P)H, 30 °C
  Activity: 0.2 U/mg
[6]
  Specific Activity: 75.4 U/mg
[6]; Table 3, Gox0644, K-phosphate buffer pH 7.0, 0.05 mM NAD(P)H, 30 °C
  Activity: 75.4 U/mg
[1]
  Specific Activities: 6.0 U/mg
[1]; Table 3, Gox0646, K-phosphate buffer pH 7.0, 0.05 mM NAD(P)H, 30 °C
  Activity: 6.0 U/mg
[7]
  Specific Activity: 5.4 U/mg
[7]; Table 3, Gox1615, K-phosphate buffer pH 7.0, 0.05 mM NAD(P)H, 30 °C
  Activity: 5.4 U/mg
[2]
  Specific Activity: < 0.1 U/mg
[4]
  Specific Activity: 2,0 U/mg
[4]; Table 3, Gox0502, K-phosphate buffer pH 7.0, 0.05 mM NAD(P)H, 30 °C
  Activity: 2.0 U/mg

## CC(=O)C(C)=O [2,3-butanedione]
[5]
  Specific Activity: 28.5 U/mg
[6]
  Specific Activity: 60.0 U/mg
[1]
  Specific Activities: 0.8 U/mg
[7]
  Specific Activity: 6 U/mg
[2]
  Specific Activity: < 0.1 U/mg
[3]
  Specific Activities: 0.5 U/mg
[4]
  Specific Activity: 0.5 U/mg

## CC1=CC(=O)c2ccccc2C1=O [2-methyl-1,4-naphthoquinone]
[2]
  Specific Activity: 124.1 U/mg
[3]
  Specific Activities: 6.8 U/mg
[4]
  Specific Activity: 10 U/mg

## CC=CC(C)=O [3-penten-2-one]
[5]
  Specific Activity: 1.5 U/mg
[7]
  Specific Activity: 0.5 U/mg
[2]
  Specific Activity: 1.9 U/mg
[3]
  Specific Activities: 1.9 U/mg
[4]
  Specific Activity: 3.6 U/mg

## O=C1Nc2ccccc2C1=O [Isatin]
[6]
  Specific Activity: 16.1 U/mg
[1]
  Specific Activities: 0.1 U/mg
[7]
  Specific Activity: 2.4 U/mg

## O=C1C=CC(=O)C=C1 [p-benzoquinone]
[1]
  Specific Activities: 0.3 U/mg
[2]
  Specific Activity: 180.5 U/mg
[4]
  Specific Activity: 10 U/mg

B1: Gox0646 (Gluconobacter oxydans 621H) (protein)
chain: MLNLDLSGRTALVTGSTGGIGLAIARKLGEAGATVIINGRKQEGVDSALEKLAKAIPGGAFRSVVADVGTAEGCKALFEAESSVDVLVNNAGIFGPNDFFQTTDESWEHLFEVNLFSGVRLSRAYMPGMKERNWGRVLFIASESALNIPVEMVDYGVSKTAMLGLARGLAKLMAGTNVTVNSVLPGPTLSEGVEDMLKAQNPDSTRPVAELAAEFVQKHRPSNILRRMATVDEVANLVVYAASPLASATTGAALRVDGGTVDTI
[8]
  Km: 9 mM and 9.3 mM
  Vmax: 10 U/mg protein and 10.0 µmol/min•mg

From patent EP2119770B1, “Production of alpha-oxyfunctionalized carbonyl compounds” (priority 2008, dated 2009)
